Assay results taken from patent publication US20120258975A1, “Potent Small Molecule Inhibitors of Autophagy, and Methods of Use Thereof” (Shanghai Institute of Organic Chemistry, priority 2009, published 2012).
Values joined by “and” are separate entries in the source; they are usually repeats but may differ in a detail not shown here. Equal entries are not always repeated. Where two headings read alike, the source gives them in different places.

Experiments:
LC3-GFP (H4-LC3 cells) = test: LC3-GFP image-based autophagy assay in H4-LC3 cells; type: cell-based
Experimental: FIG. 1 relates to identification of a small molecule inhibitor of autophagy by an image-based screen. A, structure of MBCQ. B, Quantitative analysis of LC3-GFP spot number per cell (a), spot size per cell (b), spot intensity per cell (c). The data are expressed as % of control vehicle treated cells. H4-LC3 cells were seeded in 96 well-plates and incubated with vehicle control (1% DMSO), 0.2 μM rapamycin with or without 10 μM MBCQ for indicated time, fixed with 4% paraformaldehyde and stained with 4,6-diamidino-2-phenylindole (DAPI, 3 μg/ml). Images of 1000 cells for each compound treatment were analyzed by ArrayScan HCS 4.0 Reader with a 20× objective (Cellomics, Pittsburgh, Pa.).
(§1) FIG. 14 depicts MBCQ derivatives that can inhibit autophagy. To calculate EC50, H4-LC3 cells were seeded in 96 well-plates and cultured in the presence of compounds in different concentration for 24 h, and then fixed with polyformate and stained with 4,6-diamidino-2-phenylindole (DAPI, 3 μg/ml). Images data were collected with an ArrayScan HCS 4.0 Reader with a 20× objective (Cellomics, Pittsburgh, Pa.) for DAPI labeled nuclei and GFP-LC3, a marker for autophagy. The Spot Detector Bio-Application was used to acquire and analyze the images after optimization. Images of 1000 cells for each compound treatment were analyzed to obtain average cell number per field, fluorescence spot number, area and intensity per cell. DMSO and rapamycin were used as negative or positive control, respectively. The percentages of changes of LC3-GFP were calculated by dividing with that of DMSO treated samples. Each treatment was done in triplicate for mean and SD. The images were also analyzed using a conventional fluorescence microscope for visual inspection. The experiments were repeated three times
as §1, with “15” for “14”, “with reduced or no ability to” for “that can”, “times.” for “times”
To explore the mechanism of autophagy and identify additional small molecules that can activate it, a high-throughput image-based screen for autophagy regulators was developed. This system takes advantage of the localization of light chain 3 coupled to GFP (LC3-GFP) to autophagosomal membrane upon induction of autophagy (Zhang, L., Yu, J., Pan, H., Hu, P., Hao, Y., Cai, W., Zhu, H., Yu, A. D., Xie, X., Ma, D., et al. (2007). Small molecule regulators of autophagy identified by an image-based high-throughput screen. Proc Natl Acad Sci USA 104, 19023-19028). […] Compounds that increase cellular levels of LC3-GFP, however, are not necessarily able to increase degradative activity of autophagy. Instead, the increases of LC3-GFP may be associated with cell death or may be a result of lysosomal defect and thus associated with blockage of autophagy. […]

Hs578Bst cells = test: Hs578Bst cells; type: cell-based
Experimental: A-B, MDCK cells were treated with DMSO (1‰) and spautin at indicated concentration in DMEM with or without glucose for 24 h. […] C-D, Hs578Bst cells were treated with DMSO (1‰) and C43 as indicated concentration in DMEM with or without glucose for 24 h.
Hs578Bst cells, established from normal tissue peripheral to the tumor and is myoepithelial in origin, also were not sensitive to spautin (FIGS. 12C and 12D).

[1] = test system: autophagy (LC3) in pancreas; test: Cerulein induced pancreatitis model in rats; type: in vivo; conditions: 40 mg/kg intraperitoneally hourly for 4 times with cerulein
Experimental: FIG. 13 depicts results showing the effect of MBCQ and derivatives in vivo. (A) Mice were injected with rapamycin (10 mg/kg) alone as a positive control, or with C43 or MBCQ (40 mg/kg) intraperitoneally every hour for 4 h and then sacrificed at 5 th h. The autophagy levels in liver were analyzed by western blotting using anti-LC3 antibody. (B) C43 reduces the levels of autophagy induced by cerulein. Rats were injected intraperitoneally with cerulein (50 μg/kg) alone or with C43 (40 mg/kg) hourly for 4 times. The rats were sacrificed at one h after the last injection and the pancreas were isolated for western blotting analysis using anti-LC3 and anti-tubulin (as a control).
Since autophagy has been proposed to contribute to the tissue damage in pancreatitis, MBCQ derivatives were tested to see if they could reduce tissue damage induced by cerulein injection, a well-established animal model of pancreatitis (Hashimoto, D., Ohmuraya, M., Hirota, M., Yamamoto, A., Suyama, K., Ida, S., Okumura, Y., Takahashi, E., Kido, H., Araki, K., et al. (2008). Involvement of autophagy in trypsinogen activation within the pancreatic acinar cells. J Cell Biol 181, 1065-1072; and Ohmuraya, M., and Yamamura, K. (2008). Autophagy and acute pancreatitis: a novel autophagy theory for trypsinogen activation. Autophagy 4, 1060-1062). […]

Beclin1 = test: Ubiquitination of Beclin1 in 293T cells; type: cell-based
Experimental: FIG. 16 depicts results of experiments showing that spautin promotes the degradation of Beclin1 through proteasomal pathway. […] DMSO (1‰), MBCQ (10 μM), spautin (10 μM), NH4Cl (10 mM), MG132 (5 μM). […] B, 293T cells were transfected with GFP-Beclin1 and HA-Ub expression vectors.
Ubiquitination represents an essential key step in mediating proteasomal degradation. Experiments were therefore run to determine if ubiquitination of Beclin1 is increased in cells treated with C43.

[2] = test system: USP10/Beclin1 and USP13/Beclin1 interaction; test: USP10 or USP13 / GFP-Beclin1 co-immunoprecipitation in 293T cells; type: cell-based; conditions: 10 μM, 4 h, with MG132
Experimental: To further confirm that USP10 and USP13 are the deubiquitinating proteases of Vps34 complexes, the interaction of Flag-USP10/GFP-Beclin1 and Myc-USP13/GFP-Beclin1 in 293T cells was assayed with immunoprecipitation. […] Furthermore, this may provide a mechanism to explain why beclin1 is frequently lost in many kinds of cancers as the loss of beclin1 may lead to a reduction of p53 by inhibiting its deubiquitining proteases.

SMILES	fold more potent than 3-MA (LC3-GFP (H4-LC3 cells); IC50 versus 3-MA working concentration of 10 mM)	LC3-GFP dots (number, spot size, spot intensity) (LC3-GFP (H4-LC3 cells); basal and rapamycin (0.2 μM) stimulated, 10 μM MBCQ)	IC50 (LC3-GFP (H4-LC3 cells); rapamycin and MBCQ together versus rapamycin alone, read-out: IC50 (intensity of LC3-GFP)) [nM]	IC50 (LC3-GFP (H4-LC3 cells); cell-based assays, read-out: IC50, inhibition of autophagy)	sensitivity of cells to compound (Hs578Bst cells)	levels of autophagy induced by cerulein injection (pancreas) [1]	ubiquitination of Beclin1 (Beclin1)	interaction of Flag-USP10 with GFP-Beclin1 [2]
Clc1ccc2ncnc(NCc3ccc4c(c3)OCO4)c2c1 [MBCQ]	about 10,000 fold	reduced the number, spot size as well as spot intensity	788	–	–	–	–	–
Fc1ccc(CNc2ncnc3ccc(F)cc23)cc1 [C43, 6-fluoro-N-(4-fluorobenzyl)quinazolin-4-amine]	–	–	–	870 nM and ~800 nM	not sensitive	significantly reduced the levels of autophagy	promoted the ubiquitination of Beclin1	impair the interaction
